What was measured:
[1] = tested on: intestinal P-gp-mediated digoxin transport; assay: In situ rat single-pass intestinal perfusion; assay type: in vivo; settings: for increase of digoxin Peff relative to digoxin alone: rat SPIP
[2] = tested on: P-gp expression in Caco-2 cells; assay: Western blot analysis of P-gp expression; assay type: cell-based; settings: 48 h
[3] = 1 μM drug, not statistically significant

SMILES: C[C@H]1O[C@@H](O[C@H]2[C@@H](O)C[C@H](O[C@H]3[C@@H](O)C[C@H](O[C@H]4CC[C@@]5(C)[C@H](CC[C@@H]6[C@@H]5C[C@@H](O)[C@]5(C)[C@@H](C7=CC(=O)OC7)CC[C@]65O)C4)O[C@@H]3C)O[C@@H]2C)C[C@H](O)[C@@H]1O [digoxin]
- Peff of digoxin (20 μM) alone ([1]; rat jejunum SPIP, digoxin 20 μM, no inhibitor, n = 3, mean ± SD): 3.4 ± 0.8 × 10^-5cm/s

SMILES: Cc1ccc(S(=O)(=O)NC(=O)NN2CC3CCCC3C2)cc1 (stereo not drawn) [gliclazide]
- increase of digoxin Peff relative to digoxin alone ([1]; 0.1 μM drug, significant): about 59%
- increase of digoxin Peff relative to digoxin alone ([1]; 10 μM drug, significant): ~76%
- increase of digoxin Peff relative to digoxin alone ([1]; 500 μM drug, significant): ~153%
- P-gp protein levels (P-gp/β-actin) relative to the untreated control ([2]; 500 μM drug): decreased

SMILES: CN(C)C(=N)N=C(N)N [metformin]
- increase of digoxin Peff relative to digoxin alone [1, 3]: about 44%
- increase of digoxin Peff relative to digoxin alone ([1]; 100 μM drug, P < 0.01): 117.6%
- increase of digoxin Peff relative to digoxin alone ([1]; 7000 μM drug, P < 0.01): 167.6%
- P-gp protein levels (P-gp/β-actin) relative to the untreated control ([2]; 7000 μM drug): decreased

SMILES: CCc1ccc(CCOc2ccc(CC3SC(=O)NC3=O)cc2)nc1 (stereo not drawn) [pioglitazone]
- increase of digoxin Peff relative to digoxin alone [1, 3]: about 38%
- increase of digoxin Peff relative to digoxin alone ([1]; 300 μM drug, P < 0.01): ~100%
- P-gp protein levels (P-gp/β-actin) relative to the untreated control ([2]; 300 μM drug): decreased
